Measured values taken from ChEMBL document CHEMBL3885861, “Open TG-GATES”.

Species: Rattus norvegicus
Test: Open TG-GATES - Regimen: Single
Assay type: toxicity, organism-based, Sprague-Dawley
Design: regimen Single, gender Male, age 6 weeks
Conditions: in vivo, po, 30 mg/kg, route gavage, dose level Low; for APTT / Bas / Eos / Fbg / Hb / Ht / Lym / MCH / MCHC / MCV / Mono / Neu / PT / Plat / RBC / Ret / WBC: tissue Blood; for KIDNEY_L / KIDNEY_R / KIDNEY_TOTAL: tissue Kidney; for LIVER: tissue Liver; for A/G / ALP / ALT / AST / BUN / CRE / Ca / Cl / DBIL / GLC / IP / K / LDH / Na / PL / RALB / TBIL / TC / TG / TP / gamma-GTP: tissue Plasma

`CC[C@H]1[C@@H]2C[C@H]3[C@@H]4N(C)c5ccccc5[C@]45C[C@@H]([C@@H]2[C@H]5O)N3[C@@H]1O` [AJMALINE] was tested, and the TERMINAL_BW (3 h) was 194.7 g, the APTT (3 h) was 16.9 s and the Bas (3 h) was 0%. For the same molecule, the Eos (3 h) was 1%, the Fbg (3 h) was 196.4 mg/dL and the Hb (3 h) was 12.8 g/dL. For the same molecule, the Ht (3 h) was 39.1%, the Lym (3 h) was 78.6% and the MCH (3 h) was 21.7 pg. For the same molecule, the MCHC (3 h) was 32.8%, the MCV (3 h) was 66.3 fL and the Mono (3 h) was 8.8%. The Neu (3 h) was 12%, the PT (3 h) was 11.6 s and the Plat (3 h) was 121.5 x10_4/uL. For the same molecule, the RBC (3 h) was 590.6 x10_4/ul, the Ret (3 h) was 12.4% and the WBC (3 h) was 114.3 x10_2/uL. It also gave a KIDNEY_L (3 h) of 0.9 g, a KIDNEY_R (3 h) of 0.9 g and a KIDNEY_TOTAL (3 h) of 1.8 g. The LIVER (3 h) was 9.1 g, the A/G (3 h) was 2.3 and the ALP (3 h) was 821 IU/L. For the same molecule, the ALT (3 h) was 34.8 IU/L, the AST (3 h) was 69.8 IU/L and the BUN (3 h) was 12.2 mg/dL. The CRE (3 h) was 0.4 mg/dL, the Ca (3 h) was 11.3 mg/dL and the Cl (3 h) was 102.4 meq/L. For the same molecule, the DBIL (3 h) was 0.052 mg/dL, the GLC (3 h) was 193.6 mg/dL and the IP (3 h) was 9 mg/dL. The K (3 h) was 4.5 meq/L, the LDH (3 h) was 108 IU/L and the Na (3 h) was 137.8 meq/L. The PL (3 h) was 141.6 mg/dL, the RALB (3 h) was 3.7 g/dL and the TBIL (3 h) was 0.4 mg/dL. It also gave a TC (3 h) of 77.4 mg/dL, a TG (3 h) of 55.8 mg/dL and a TP (3 h) of 5.3 g/dL. It also gave a gamma-GTP (3 h) of 1.6 IU/L, a TERMINAL_BW (6 h) of 190.9 g and an APTT (6 h) of 17.2 s. For the same molecule, the Bas (6 h) was 0%, the Eos (6 h) was 1.2% and the Fbg (6 h) was 205 mg/dL. It also gave a Hb (6 h) of 12.8 g/dL, a Ht (6 h) of 38.9% and a Lym (6 h) of 74%. It also gave an MCH (6 h) of 22.2 pg, an MCHC (6 h) of 33% and an MCV (6 h) of 67.2 fL. It also gave a Mono (6 h) of 7%, a Neu (6 h) of 18.2% and a PT (6 h) of 11.8 s. The Plat (6 h) was 114.2 x10_4/uL, the RBC (6 h) was 578.4 x10_4/ul and the Ret (6 h) was 11.9%. For the same molecule, the WBC (6 h) was 89.1 x10_2/uL, the KIDNEY_L (6 h) was 0.9 g and the KIDNEY_R (6 h) was 0.9 g. The KIDNEY_TOTAL (6 h) was 1.8 g, the LIVER (6 h) was 8.4 g and the A/G (6 h) was 2. For the same molecule, the ALP (6 h) was 865.4 IU/L, the ALT (6 h) was 40.6 IU/L and the AST (6 h) was 70 IU/L. The BUN (6 h) was 9 mg/dL, the CRE (6 h) was 0.5 mg/dL and the Ca (6 h) was 10.8 mg/dL. It also gave a Cl (6 h) of 102.6 meq/L, a DBIL (6 h) of 0.068 mg/dL and a GLC (6 h) of 195.8 mg/dL. The IP (6 h) was 9.7 mg/dL, the K (6 h) was 4.6 meq/L and the LDH (6 h) was 104.8 IU/L. The Na (6 h) was 138.8 meq/L, the PL (6 h) was 141.4 mg/dL and the RALB (6 h) was 3.5 g/dL. It also gave a TBIL (6 h) of 0.4 mg/dL, a TC (6 h) of 82.8 mg/dL and a TG (6 h) of 46.8 mg/dL. The TP (6 h) was 5.3 g/dL, the gamma-GTP (6 h) was 1.6 IU/L and the TERMINAL_BW (9 h) was 190.6 g. It also gave an APTT (9 h) of 17.1 s, a Bas (9 h) of 0% and an Eos (9 h) of 1%. It also gave a Fbg (9 h) of 201.2 mg/dL, a Hb (9 h) of 12.6 g/dL and a Ht (9 h) of 38.1%. For the same molecule, the Lym (9 h) was 70.4%, the MCH (9 h) was 21.6 pg and the MCHC (9 h) was 33%. For the same molecule, the MCV (9 h) was 65.6 fL, the Mono (9 h) was 8% and the Neu (9 h) was 21%. For the same molecule, the PT (9 h) was 12.1 s, the Plat (9 h) was 119.4 x10_4/uL and the RBC (9 h) was 580.8 x10_4/ul. The Ret (9 h) was 10.6%, the WBC (9 h) was 83.7 x10_2/uL and the KIDNEY_L (9 h) was 0.9 g. For the same molecule, the KIDNEY_R (9 h) was 0.9 g, the KIDNEY_TOTAL (9 h) was 1.8 g and the LIVER (9 h) was 8.1 g. For the same molecule, the A/G (9 h) was 2.2, the ALP (9 h) was 827.2 IU/L and the ALT (9 h) was 34.6 IU/L. The AST (9 h) was 64.6 IU/L, the BUN (9 h) was 12.2 mg/dL and the CRE (9 h) was 0.6 mg/dL. For the same molecule, the Ca (9 h) was 10.4 mg/dL, the Cl (9 h) was 104.8 meq/L and the DBIL (9 h) was 0.1 mg/dL. For the same molecule, the GLC (9 h) was 199.2 mg/dL, the IP (9 h) was 10.3 mg/dL and the K (9 h) was 5 meq/L. For the same molecule, the LDH (9 h) was 108.2 IU/L, the Na (9 h) was 139 meq/L and the PL (9 h) was 132 mg/dL. The RALB (9 h) was 3.6 g/dL, the TBIL (9 h) was 0.4 mg/dL and the TC (9 h) was 82.2 mg/dL. The TG (9 h) was 48.4 mg/dL, the TP (9 h) was 5.2 g/dL and the gamma-GTP (9 h) was 0.8 IU/L. For the same molecule, the TERMINAL_BW (24 h) was 210.7 g, the APTT (24 h) was 16.3 s and the Bas (24 h) was 0%. The Eos (24 h) was 1%, the Fbg (24 h) was 225 mg/dL and the Hb (24 h) was 12.8 g/dL. For the same molecule, the Ht (24 h) was 38.6%, the Lym (24 h) was 75.8% and the MCH (24 h) was 21.7 pg. The MCHC (24 h) was 33.2%, the MCV (24 h) was 65.3 fL and the Mono (24 h) was 7.6%. For the same molecule, the Neu (24 h) was 15.2%, the PT (24 h) was 11.5 s and the Plat (24 h) was 112.6 x10_4/uL. It also gave an RBC (24 h) of 590.8 x10_4/ul, a Ret (24 h) of 10.5% and a WBC (24 h) of 105.8 x10_2/uL. For the same molecule, the KIDNEY_L (24 h) was 1 g, the KIDNEY_R (24 h) was 1 g and the KIDNEY_TOTAL (24 h) was 2 g. For the same molecule, the LIVER (24 h) was 10.6 g, the A/G (24 h) was 2.1 and the ALP (24 h) was 875.4 IU/L. It also gave an ALT (24 h) of 36.8 IU/L, an AST (24 h) of 66.2 IU/L and a BUN (24 h) of 15.8 mg/dL. For the same molecule, the CRE (24 h) was 0.6 mg/dL, the Ca (24 h) was 11.2 mg/dL and the Cl (24 h) was 100.8 meq/L. For the same molecule, the DBIL (24 h) was 0.016 mg/dL, the GLC (24 h) was 207.6 mg/dL and the IP (24 h) was 8.4 mg/dL. The K (24 h) was 4.5 meq/L, the LDH (24 h) was 120.6 IU/L and the Na (24 h) was 140 meq/L. The PL (24 h) was 156.4 mg/dL, the RALB (24 h) was 3.8 g/dL and the TBIL (24 h) was 0.3 mg/dL. It also gave a TC (24 h) of 86.4 mg/dL, a TG (24 h) of 114.4 mg/dL and a TP (24 h) of 5.6 g/dL. It also gave a gamma-GTP (24 h) of 1.4 IU/L.
